Measured values as given in PubChem BioAssay AID2060490 (Molecular Pharmacology Branch, DTP, NCI, 2025).
Values belong to the compound of their own block, whether it stands above or below them.

System: 885512-296-R-J2-PDC complex spheroid viability
Test: Anticancer human tumor 885512-296-R-J2-PDC patient-derived breast carcinoma cell line growth inhibition [GQUAD]
Details: for IC50: curve of first compound; for viability, T/C: stronger effect = lower value
Outline: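 Viability of tumor cells grown as complex spheroids with endothelial and stromal cells, exposed to drug combinations. Top concentration at or near clinical Cmax (else 10 microM), diluted in half-log increments.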

[1] = second compound 0.0316 µM, first compound 0.000999 µM
[2] = second compound 0.0316 µM, first compound 0.00316 µM
[3] = second compound 0.0316 µM, first compound 0.00999 µM
[4] = second compound 0.0316 µM, first compound 0.0316 µM
[5] = second compound 0.0316 µM, first compound 0.0999 µM
[6] = second compound 0.0316 µM, first compound 0.316 µM
[7] = second compound 0.1 µM, first compound 0.000999 µM
[8] = second compound 0.1 µM, first compound 0.00316 µM
[9] = second compound 0.1 µM, first compound 0.00999 µM
[10] = second compound 0.1 µM, first compound 0.0316 µM
[11] = second compound 0.1 µM, first compound 0.0999 µM
[12] = second compound 0.1 µM, first compound 0.316 µM
[13] = second compound 0.316 µM, first compound 0.000999 µM
[14] = second compound 0.316 µM, first compound 0.00316 µM
[15] = second compound 0.316 µM, first compound 0.00999 µM
[16] = second compound 0.316 µM, first compound 0.0316 µM
[17] = second compound 0.316 µM, first compound 0.0999 µM
[18] = second compound 0.316 µM, first compound 0.316 µM
[19] = second compound 1 µM, first compound 0.000999 µM
[20] = second compound 1 µM, first compound 0.00316 µM
[21] = second compound 1 µM, first compound 0.00999 µM
[22] = second compound 1 µM, first compound 0.0316 µM
[23] = second compound 1 µM, first compound 0.0999 µM
[24] = second compound 1 µM, first compound 0.316 µM
[25] = second compound 3.16 µM, first compound 0.000999 µM
[26] = second compound 3.16 µM, first compound 0.00316 µM
[27] = second compound 3.16 µM, first compound 0.00999 µM
[28] = second compound 3.16 µM, first compound 0.0316 µM
[29] = second compound 3.16 µM, first compound 0.0999 µM
[30] = second compound 3.16 µM, first compound 0.316 µM
[31] = second compound 10 µM, first compound 0.000999 µM
[32] = second compound 10 µM, first compound 0.00316 µM
[33] = second compound 10 µM, first compound 0.00999 µM
[34] = second compound 10 µM, first compound 0.0316 µM
[35] = second compound 10 µM, first compound 0.0999 µM
[36] = second compound 10 µM, first compound 0.316 µM
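Further: spheroids exposed to the compounds for one week.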
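Wherever viability, T/C is given: percent of tumor spheroid viability relative to DMSO vehicle control wells.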

IC50 (second compound 0.0316 µM): 15 nM
IC50 (second compound 0.1 µM): < 0.999 nM
IC50 (second compound 0.316 µM): < 0.999 nM
IC50 (second compound 1 µM): < 0.999 nM
IC50 (second compound 3.16 µM): < 0.999 nM
IC50 (second compound 10 µM): < 0.999 nM
Structure (SMILES): Cc1[nH]c2ccccc2c1CCNCc1ccc(/C=C/C(=O)NO)cc1 + Cc1cnc(CNC(=O)c2c(=O)c3ccc(N4CCCN(C)CC4)nc3n3c2sc2ccccc23)cn1
viability, T/C [1]: 83.8%
viability, T/C [2]: 80.2%
viability, T/C [3]: 52%
viability, T/C [4]: 34.5%
viability, T/C [5]: 27.9%
viability, T/C [6]: 5.52%
viability, T/C [7]: 52.9%
viability, T/C [8]: 43.2%
viability, T/C [9]: 38.6%
viability, T/C [10]: 36.9%
viability, T/C [11]: 29.8%
viability, T/C [12]: 6.34%
viability, T/C [13]: 27.3%
viability, T/C [14]: 16%
viability, T/C [15]: 15.3%
viability, T/C [16]: 22.8%
viability, T/C [17]: 25.1%
viability, T/C [18]: 5.41%
viability, T/C [19]: 17.4%
viability, T/C [20]: 14.9%
viability, T/C [21]: 19.2%
viability, T/C [22]: 15.4%
viability, T/C [23]: 13.9%
viability, T/C [24]: 0.1%
viability, T/C [25]: 19.2%
viability, T/C [26]: 17.6%
viability, T/C [27]: 0.21%
viability, T/C [28]: 0.22%
viability, T/C [29]: 0.15%
viability, T/C [30]: 0.13%
viability, T/C [31]: 0.17%
viability, T/C [32]: 0.17%
viability, T/C [33]: 0.24%
viability, T/C [34]: 0.22%
viability, T/C [35]: 0.22%
viability, T/C [36]: 0.23%

IC50 (second compound 0.0316 µM): 318 nM
IC50 (second compound 0.1 µM): 187 nM
IC50 (second compound 0.316 µM): < 31.6 nM
IC50 (second compound 1 µM): < 31.6 nM
IC50 (second compound 3.16 µM): < 31.6 nM
IC50 (second compound 10 µM): < 31.6 nM
Structure (SMILES): COc1cc(C2c3cc4c(cc3C(OC3OC5COC(C)OC5C(O)C3O)C3COC(=O)C23)OCO4)cc(OC)c1O (stereo unspecified) + Cc1cnc(CNC(=O)c2c(=O)c3ccc(N4CCCN(C)CC4)nc3n3c2sc2ccccc23)cn1
viability, T/C [4]: 80.8%
viability, T/C (second compound 0.0316 µM, first compound 0.1 µM): 81%
viability, T/C [6]: 48%
viability, T/C (second compound 0.0316 µM, first compound 1 µM): 22.8%
viability, T/C (second compound 0.0316 µM, first compound 3.16 µM): 13.4%
viability, T/C (second compound 0.0316 µM, first compound 10 µM): 10.5%
viability, T/C [10]: 57.2%
viability, T/C (second compound 0.1 µM, first compound 0.1 µM): 55.8%
viability, T/C [12]: 45%
viability, T/C (second compound 0.1 µM, first compound 1 µM): 28%
viability, T/C (second compound 0.1 µM, first compound 3.16 µM): 13.7%
viability, T/C (second compound 0.1 µM, first compound 10 µM): 11.4%
viability, T/C [16]: 26%
viability, T/C (second compound 0.316 µM, first compound 0.1 µM): 34.3%
viability, T/C [18]: 23.3%
viability, T/C (second compound 0.316 µM, first compound 1 µM): 24.1%
viability, T/C (second compound 0.316 µM, first compound 3.16 µM): 16.4%
viability, T/C (second compound 0.316 µM, first compound 10 µM): 8.65%
viability, T/C [22]: 29%
viability, T/C (second compound 1 µM, first compound 0.1 µM): 21.8%
viability, T/C [24]: 23.6%
viability, T/C (second compound 1 µM, first compound 1 µM): 21.1%
viability, T/C (second compound 1 µM, first compound 3.16 µM): 21.3%
viability, T/C (second compound 1 µM, first compound 10 µM): 14.2%
viability, T/C [28]: 34%
viability, T/C (second compound 3.16 µM, first compound 0.1 µM): 28.4%
viability, T/C [30]: 29.6%
viability, T/C (second compound 3.16 µM, first compound 1 µM): 23.5%
viability, T/C (second compound 3.16 µM, first compound 3.16 µM): 22.3%
viability, T/C (second compound 3.16 µM, first compound 10 µM): 17.7%
viability, T/C [34]: 0.09%
viability, T/C (second compound 10 µM, first compound 0.1 µM): 0.17%
viability, T/C [36]: 0.18%
viability, T/C (second compound 10 µM, first compound 1 µM): 0.15%
viability, T/C (second compound 10 µM, first compound 3.16 µM): 0.16%
viability, T/C (second compound 10 µM, first compound 10 µM): 0.18%

Structure (SMILES): CC[C@@]1(O)C(=O)OCc2c1cc1n(c2=O)Cc2cc3c(CN(C)C)c(O)ccc3nc2-1 + Cc1[nH]c2ccc(F)cc2c1-c1nc2c3cccnc3c3ncccc3c2[nH]1
IC50 (second compound 0.0316 µM): 26.3 nM
IC50 (second compound 0.1 µM): 29.7 nM
IC50 (second compound 0.316 µM): 29.9 nM
IC50 (second compound 1 µM): 19.8 nM
IC50 (second compound 3.16 µM): < 0.999 nM
IC50 (second compound 10 µM): < 0.999 nM
viability, T/C [1]: 105%
viability, T/C [2]: 88.5%
viability, T/C [3]: 89.9%
viability, T/C [4]: 41.7%
viability, T/C [5]: 14.9%
viability, T/C [6]: 6.49%
viability, T/C [7]: 110%
viability, T/C [8]: 101%
viability, T/C [9]: 98.5%
viability, T/C [10]: 46.9%
viability, T/C [11]: 10.7%
viability, T/C [12]: 4.48%
viability, T/C [13]: 96%
viability, T/C [14]: 101%
viability, T/C [15]: 87.3%
viability, T/C [16]: 48.3%
viability, T/C [17]: 11.2%
viability, T/C [18]: 3.51%
viability, T/C [19]: 68.2%
viability, T/C [20]: 74.6%
viability, T/C [21]: 72%
viability, T/C [22]: 35.7%
viability, T/C [23]: 9.71%
viability, T/C [24]: 3.76%
viability, T/C [25]: 14.8%
viability, T/C [26]: 23.3%
viability, T/C [27]: 14%
viability, T/C [28]: 6.97%
viability, T/C [29]: 2.52%
viability, T/C [30]: 2.01%
viability, T/C [31]: 1.29%
viability, T/C [32]: 2.13%
viability, T/C [33]: 1.51%
viability, T/C [34]: 1.58%
viability, T/C [35]: 1.12%
viability, T/C [36]: 0.82%
